Assay results: PubChem BioAssay (NCI)
Several values for one entry are separate records, joined by “and”; a condition that tells them apart may be missing. Equal values may be shown once.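 Tested at 5 concentrations; 48 h exposure; 96-well plates; endpoints linearly interpolated, else capped at highest concentration. Definition used: TGI = concentration required for complete inhibition of growth.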

Key:
Test in all cases: inhibition of tumour cell growth, NCI panel, 48 h
HS 578T breast = system: HS 578T breast
KM20L2 colon = system: KM20L2 colon
M19-MEL melanoma = system: M19-MEL melanoma
NCI-H23 lung = system: NCI-H23 lung
NCI-H460 lung = system: NCI-H460 lung
SF-539 CNS = system: SF-539 CNS
SK-MEL-2 melanoma = system: SK-MEL-2 melanoma
SR leukemia = system: SR leukemia
SW-620 colon = system: SW-620 colon
HL-60(TB) leukemia = system: HL-60(TB) leukemia

Compound | TGI (HS 578T breast) | TGI (KM20L2 colon) | TGI (M19-MEL melanoma) | TGI (NCI-H23 lung) | TGI (NCI-H460 lung) | TGI (SF-539 CNS) | TGI (SK-MEL-2 melanoma) | TGI (SR leukemia) | TGI (SW-620 colon) | TGI (HL-60(TB) leukemia)
O=C(CC1(O)C(=O)Nc2c(Cl)cc(Cl)cc21)c1cccc([N+](=O)[O-])c1 (configuration not stated) | 94.9 µM | > 100 µM | 16.7 µM | 52.3 µM | > 100 µM | 55.4 µM | > 86.3 µM | > 100 µM | > 64.4 µM | –
CN(C)c1ccc(/C=C2\CCc3ccccc3C2=O)cc1Br | – | > 100 µM | > 100 µM | > 100 µM | > 100 µM | > 100 µM | > 100 µM | > 100 µM | > 100 µM | 58.5 µM
COC1=CC(=O)C(O)=C(CC2(C)C(C)CCC3(C)C2CCCC3(C)C)C1=O (configuration not stated) | – | 13.2 µM | 7.07 µM | 8.05 µM | 10.6 µM | 9.49 µM | 15.5 µM | 12.8 µM | 30.5 µM | 8.53 µM
C/C(=C\c1ccccc1)C(O)C(=O)c1nc2ccc(Cl)cc2[nH]c1=O (configuration not stated) | – | > 100 µM | > 100 µM | > 100 µM | > 100 µM | > 100 µM | > 100 µM | > 100 µM | > 100 µM | > 100 µM
CC(C)(C)C1CCC(O)(c2ccccc2)CC1 (configuration not stated) | – | > 100 µM and 31.7 µM | > 100 µM and 41.6 µM | > 100 µM | > 100 µM and 55.8 µM | > 100 µM and 45.4 µM | > 100 µM and 28.4 µM | > 100 µM and 33 µM | > 100 µM and 40.1 µM | 66.8 µM and 32.5 µM
COC(=O)C1CC(=O)O[C@H]1c1ccc(OC)c(OC)c1 (some centres not stated) | – | > 100 µM | > 100 µM | > 100 µM | > 100 µM | > 100 µM | > 100 µM | > 100 µM | > 100 µM | > 100 µM
N#Cc1c(CC(=O)O)cc(=O)n2c1[nH]c1ccccc12 | – | > 100 µM | > 100 µM | > 100 µM | > 100 µM | > 100 µM | > 100 µM | > 100 µM | > 100 µM | > 100 µM
O=c1c2cc(Br)ccc2nc(CNc2ccccc2)n1-c1ccccc1 | – | > 100 µM | 29.7 µM | 34.1 µM | 45.4 µM | 32.7 µM | 62.3 µM | > 30.4 µM | 27.5 µM | 39.7 µM
